Reference: patent publication US10293027B2, “Methods for treating metabolic disorders using FGF” (Salk Institute for Biological Studies, priority 2010, dated 2019)

Legend:
[1] = test system: ob/ob mice; test: Single s.c. injection of human FGF1 or other FGFs, blood glucose in ob/ob mice (Examples 13, 14); format: in vivo, mouse; conditions: 0.5 mg/kg s.c.
Protocol: FIG. 26. Human recombinant FGF-1 is effective in mice.
FIG. 27. Comparison of FGF1, FGF2, FGF9, and FGF10 effects. Single subcutaneous injection of FGFs (0.5 mg/kg) in ob/ob mice.
As human recombinant FGF-1 is already being used in the clinic, the present methods of using it to treat metabolic disorders offer a straightforward regulatory path to treatment.
As explained above, the FGF family of factors bind to members of the FGFR family of receptors with different specificities. FGF-1 binds preferentially to FGFR1 and FGFR4, and can be internalized into a cell expressing these receptors. To determine if other FGF proteins have similar metabolic effects as FGF-1, we tested blood glucose in ob/ob mice treated with FGF-2, FGF-9, and FGF-10 (0.5 mg/kg s.c.). This combination of FGF proteins binds to the spectrum of FGFRs.

[2] = test system: ob/ob male mice; test: Daily FGF-1 or rosiglitazone treatment of ob/ob mice: fed blood glucose and body composition (Example 5); format: in vivo, mouse; conditions: fed ob/ob male mice, one hour after treatment; FGF-1 0.5 mg/kg/day s.c., TZD 5 mg/kg/day p.o.; about 400 mg/dl before treatment
Protocol: FIGS. 7A-7H. FGF-1 injection studies in rodents. (A) Fed blood glucose in ob/ob male mice treated with FGF-1 (0.5 mg/kg, s.c.), rosiglitazone (TZD, 5 mg/kg, p.o.), or vehicle. FGF-1 was administered once daily, and blood glucose levels were measured at day 0 (basal levels before FGF-1 injection), day 3, and day 6, 1 hour after injection. The values (±SE) shown are the average of the measurements of 5 animals in a group; (B) Sustained glucose lowering effects of FGF-1: Fed blood glucose levels in ob/ob mice at indicated time points after the last FGF-1 injection at day 6. (C-H): 72 hrs after the sixth dose, another dose was given and effects of FGF-1 and TZD on (C) body weight, (D) total body fat, (E) lean weight, (F) weight gain, (G) liver weight, and (H) heart weight were determined.
In Example 5, ob/ob male mice (8 wk old) were randomized into three groups and treated with daily subcutaneous (s.c.) injections of recombinant mouse FGF-1 (0.5 mg/kg in PBS), oral rosiglitazone (TZD, 5 mg/kg in 0.5% carboxymethyl cellulose), or vehicle. Blood glucose levels were measure in fed animals one hour after treatment. Total body composition analysis was performed using an EchoMRI-100™ (Echo Medical Systems, LLC).
Eight-week-old male ob/ob mice were treated with recombinant mouse FGF-1 (0.5 mg/kg/day, s.c. in 250 μl), rosiglitazone (TZD, 5 mg/kg/day, p.o. in 300 μl), or vehicle control (s.c. vehicle control 0.9% NaCl, 250 μl/mouse; p.o. vehicle control 0.5% CMC, 300 μl/mouse). Blood glucose was measured one hour after treatment at day 3 and day 6 using a standard protocol. (FIG. 7A).
Before treatment, all groups were severely hyperglycemic, as indicated by blood glucose levels of about 400 mg/dl. […] At 6 days, blood glucose levels were even further reduced to around 130-140 mg/dl for both groups. After the sixth dose, blood glucose levels were monitored for another 72 hrs. During this period, both FGF-1- and TZD-treated cohorts maintained normoglycemic levels (<140 mg/dl) for at least 48 hrs (FIG. 7B). At 72 hrs after the sixth dose, a final dose was given, and 12 hrs later, a total body composition analysis was performed by MRI followed by necropsy.

Row | Molecule | blood glucose in ob/ob mice after a single s.c. injection [1] | blood glucose in ob/ob mice after a single s.c. injection ([1]; listed as hrFGF-1) | blood glucose levels at day three [2]
1 | human FGF1: human recombinant FGF-1; human protein is 155 amino acids, SwissProt P05230.1 | normalizes blood glucose | can effectively reduce glucose levels | 
2 | CN(CCOc1ccc(CC2SC(=O)NC2=O)cc1)c1ccccn1 (centres unmarked) [rosiglitazone, reference compound] |  |  | about 200 mg/dl
3 | FGF2: other FGF protein tested for comparison with FGF-1 [reference compound] | Only FGF1 has glucose normalizing effects |  | 
4 | FGF10: other FGF protein tested for comparison with FGF-1 (protein, UniProt O15520 38-208, looked up) Fibroblast growth factor 10: QALGQDMVSPEATNSSSSSFSSPSSAGRHVRSYNHLQGDVRWRKLFSFTKYFLKIEKNGKVSGTKKENCPYSILEITSVEIGVVAVKAINSNYYLAMNKKGKLYGSKEFNNDCKLKERIEENGYNTYASFNWQHNGRQMYVALNGKGAPRRGQKTRRKNTSAHFLPMVVHS | Only FGF1 has glucose normalizing effects |  | 
